Measurements reported in patent US10246453B2, “Benzenesulfonamide compounds and their use as therapeutic agents” (Xenon Pharmaceuticals Inc., priority 2016, dated 2019).
Where a name gives a salt, the structure may show the parent alone.

How the values were obtained:
NaV1.6 [1] = biological target: T1, NaV1.6 (Homo sapiens (Human), UniProt Q9UQD0); test: Electrophysiological Assay (EP), patch voltage clamp, NaV1.6; type: cell-based; conditions: HEK-293 cells, whole-cell patch clamp, inactivated state; arithmetic mean
T1 sequence (Q9UQD0 whole entry): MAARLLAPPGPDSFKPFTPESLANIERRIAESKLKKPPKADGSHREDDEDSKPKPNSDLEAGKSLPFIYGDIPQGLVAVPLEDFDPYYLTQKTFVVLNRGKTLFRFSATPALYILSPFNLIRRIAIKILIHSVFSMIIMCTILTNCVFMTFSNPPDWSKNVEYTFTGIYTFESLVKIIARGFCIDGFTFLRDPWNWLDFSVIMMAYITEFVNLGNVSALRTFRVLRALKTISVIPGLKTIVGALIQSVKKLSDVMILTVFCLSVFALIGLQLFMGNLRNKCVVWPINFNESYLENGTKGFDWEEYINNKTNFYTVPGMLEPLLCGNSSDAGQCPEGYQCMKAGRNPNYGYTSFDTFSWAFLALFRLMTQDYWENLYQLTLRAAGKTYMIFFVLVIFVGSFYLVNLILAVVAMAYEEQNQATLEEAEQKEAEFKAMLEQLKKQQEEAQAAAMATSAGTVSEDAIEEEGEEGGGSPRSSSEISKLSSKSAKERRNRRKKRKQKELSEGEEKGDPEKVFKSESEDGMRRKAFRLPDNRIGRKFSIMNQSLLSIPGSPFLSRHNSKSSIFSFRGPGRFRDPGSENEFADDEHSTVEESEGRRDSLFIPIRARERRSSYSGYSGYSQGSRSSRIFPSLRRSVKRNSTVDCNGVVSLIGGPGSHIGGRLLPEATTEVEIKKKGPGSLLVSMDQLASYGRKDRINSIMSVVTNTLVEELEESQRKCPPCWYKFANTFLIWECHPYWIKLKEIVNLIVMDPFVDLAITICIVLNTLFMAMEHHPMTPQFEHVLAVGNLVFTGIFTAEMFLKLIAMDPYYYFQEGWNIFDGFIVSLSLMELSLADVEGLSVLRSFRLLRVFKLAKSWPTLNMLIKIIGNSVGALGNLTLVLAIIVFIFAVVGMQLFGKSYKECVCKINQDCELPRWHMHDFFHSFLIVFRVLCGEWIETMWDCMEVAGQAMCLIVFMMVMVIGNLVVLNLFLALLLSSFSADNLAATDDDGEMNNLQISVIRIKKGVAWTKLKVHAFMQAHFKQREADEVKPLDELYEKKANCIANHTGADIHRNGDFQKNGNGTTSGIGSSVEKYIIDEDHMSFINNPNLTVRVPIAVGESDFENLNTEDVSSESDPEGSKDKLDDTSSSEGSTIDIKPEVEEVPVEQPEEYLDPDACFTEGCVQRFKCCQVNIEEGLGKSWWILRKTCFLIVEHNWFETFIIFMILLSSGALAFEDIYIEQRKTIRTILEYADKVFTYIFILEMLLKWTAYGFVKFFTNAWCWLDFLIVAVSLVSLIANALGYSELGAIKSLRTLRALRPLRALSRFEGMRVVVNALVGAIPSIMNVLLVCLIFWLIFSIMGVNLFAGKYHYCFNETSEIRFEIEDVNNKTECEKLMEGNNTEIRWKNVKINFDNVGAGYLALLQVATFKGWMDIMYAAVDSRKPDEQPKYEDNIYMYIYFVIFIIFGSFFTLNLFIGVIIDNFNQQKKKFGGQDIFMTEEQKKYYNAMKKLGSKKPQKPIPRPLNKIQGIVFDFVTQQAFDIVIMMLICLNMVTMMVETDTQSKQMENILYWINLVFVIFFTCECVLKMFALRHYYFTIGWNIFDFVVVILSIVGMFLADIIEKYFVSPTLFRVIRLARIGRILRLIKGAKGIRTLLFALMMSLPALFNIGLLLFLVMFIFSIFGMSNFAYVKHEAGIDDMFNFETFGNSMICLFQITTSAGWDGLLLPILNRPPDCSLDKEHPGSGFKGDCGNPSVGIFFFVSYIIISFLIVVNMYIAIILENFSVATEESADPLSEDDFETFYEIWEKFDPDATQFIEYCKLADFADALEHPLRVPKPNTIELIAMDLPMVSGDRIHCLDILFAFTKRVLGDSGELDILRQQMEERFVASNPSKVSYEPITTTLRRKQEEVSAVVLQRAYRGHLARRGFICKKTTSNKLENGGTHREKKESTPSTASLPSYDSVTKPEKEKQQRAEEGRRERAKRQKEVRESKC
Text: Patch voltage clamp electrophysiology allows for the direct measurement and quantification of block of voltage-gated sodium channels (Nay's), and allows the determination of the time-and voltage-dependence of block which has been interpreted as differential binding to the resting, open, and inactivated states of the sodium channel (Hille, B., Journal of General Physiology (1977), 69: 497-515).
NaV1.1, NaV1.5 and NaV1.6 cDNAs (NM_001165964 (SCN1A), NM_000335 (SCN5A) and NM_014191 (SCN8A), respectively) were stably expressed in HEK-293 cells.
(§1) Sodium currents were measured using the patch clamp technique in the whole-cell configuration using either a PatchXpress automated voltage clamp or manually using an Axopatch 200B (Axon Instruments) or Model 2400 (A-M systems) amplifier.
The manual voltage clamp protocol was as follows: Borosilicate glass micropipettes were fire-polished to a tip diameter yielding a resistance of 2-4 Mohms in the working solutions. […] In some studies, the external sodium was reduced by equimolar replacement with choline. Osmolarity in the CsF internal and NaCl external solutions was adjusted to 300 mOsm/kg and 310 mOsm/kg with glucose, respectively. All recordings were performed at ambient temperature in a bath chamber with a volume of 150 μL. Control sodium currents were measured in 0.5% DMSO. Controls and representative compounds of the invention were applied to the recording chamber through a 4-pinch or 8-pinch valve bath perfusion system manufactured by ALA Scientific Instruments.
Currents were recorded at 40 kHz sampling frequency, filtered at […], and stored using a Digidata-1322A analogue/digital interface with the pClamp software (Axon Instruments). Series resistance compensation was applied (60-80%). […] All statistics in this study are given as mean±SD.
The membrane potential was maintained at a voltage where inactivation of the channel is complete. The voltage is then stepped back to a very negative (Vhold=−150 mV) voltage for 20 ms and then a test pulse is applied to quantify the compound block. The 20 ms brief repolarization was long enough for compound-free channels to completely recover from fast inactivation, but the compound-bound channels recovered more slowly such that negligible recovery could occur during this interval. The percent decrease in sodium current following wash-on of compound was taken as the percent block of sodium channels.

NaV1.6 [2] = biological target: T1, NaV1.6; test: Sodium Influx Assay (Flux), NaV1.6; conditions: read-out: Flux NaV1.6 IC50; Trex HEK293 cells, ANG2 dye; arithmetic mean
NaV1.5 = NaV1.5 (Homo sapiens (Human), UniProt Q14524); test: Sodium Influx Assay (Flux), NaV1.5; conditions: read-out: Flux NaV1.5 IC50; Trex HEK293 cells, ANG2 dye; arithmetic mean
NaV1.5, sequence (Q14524 other isoform, or with tags, fused parts or gaps): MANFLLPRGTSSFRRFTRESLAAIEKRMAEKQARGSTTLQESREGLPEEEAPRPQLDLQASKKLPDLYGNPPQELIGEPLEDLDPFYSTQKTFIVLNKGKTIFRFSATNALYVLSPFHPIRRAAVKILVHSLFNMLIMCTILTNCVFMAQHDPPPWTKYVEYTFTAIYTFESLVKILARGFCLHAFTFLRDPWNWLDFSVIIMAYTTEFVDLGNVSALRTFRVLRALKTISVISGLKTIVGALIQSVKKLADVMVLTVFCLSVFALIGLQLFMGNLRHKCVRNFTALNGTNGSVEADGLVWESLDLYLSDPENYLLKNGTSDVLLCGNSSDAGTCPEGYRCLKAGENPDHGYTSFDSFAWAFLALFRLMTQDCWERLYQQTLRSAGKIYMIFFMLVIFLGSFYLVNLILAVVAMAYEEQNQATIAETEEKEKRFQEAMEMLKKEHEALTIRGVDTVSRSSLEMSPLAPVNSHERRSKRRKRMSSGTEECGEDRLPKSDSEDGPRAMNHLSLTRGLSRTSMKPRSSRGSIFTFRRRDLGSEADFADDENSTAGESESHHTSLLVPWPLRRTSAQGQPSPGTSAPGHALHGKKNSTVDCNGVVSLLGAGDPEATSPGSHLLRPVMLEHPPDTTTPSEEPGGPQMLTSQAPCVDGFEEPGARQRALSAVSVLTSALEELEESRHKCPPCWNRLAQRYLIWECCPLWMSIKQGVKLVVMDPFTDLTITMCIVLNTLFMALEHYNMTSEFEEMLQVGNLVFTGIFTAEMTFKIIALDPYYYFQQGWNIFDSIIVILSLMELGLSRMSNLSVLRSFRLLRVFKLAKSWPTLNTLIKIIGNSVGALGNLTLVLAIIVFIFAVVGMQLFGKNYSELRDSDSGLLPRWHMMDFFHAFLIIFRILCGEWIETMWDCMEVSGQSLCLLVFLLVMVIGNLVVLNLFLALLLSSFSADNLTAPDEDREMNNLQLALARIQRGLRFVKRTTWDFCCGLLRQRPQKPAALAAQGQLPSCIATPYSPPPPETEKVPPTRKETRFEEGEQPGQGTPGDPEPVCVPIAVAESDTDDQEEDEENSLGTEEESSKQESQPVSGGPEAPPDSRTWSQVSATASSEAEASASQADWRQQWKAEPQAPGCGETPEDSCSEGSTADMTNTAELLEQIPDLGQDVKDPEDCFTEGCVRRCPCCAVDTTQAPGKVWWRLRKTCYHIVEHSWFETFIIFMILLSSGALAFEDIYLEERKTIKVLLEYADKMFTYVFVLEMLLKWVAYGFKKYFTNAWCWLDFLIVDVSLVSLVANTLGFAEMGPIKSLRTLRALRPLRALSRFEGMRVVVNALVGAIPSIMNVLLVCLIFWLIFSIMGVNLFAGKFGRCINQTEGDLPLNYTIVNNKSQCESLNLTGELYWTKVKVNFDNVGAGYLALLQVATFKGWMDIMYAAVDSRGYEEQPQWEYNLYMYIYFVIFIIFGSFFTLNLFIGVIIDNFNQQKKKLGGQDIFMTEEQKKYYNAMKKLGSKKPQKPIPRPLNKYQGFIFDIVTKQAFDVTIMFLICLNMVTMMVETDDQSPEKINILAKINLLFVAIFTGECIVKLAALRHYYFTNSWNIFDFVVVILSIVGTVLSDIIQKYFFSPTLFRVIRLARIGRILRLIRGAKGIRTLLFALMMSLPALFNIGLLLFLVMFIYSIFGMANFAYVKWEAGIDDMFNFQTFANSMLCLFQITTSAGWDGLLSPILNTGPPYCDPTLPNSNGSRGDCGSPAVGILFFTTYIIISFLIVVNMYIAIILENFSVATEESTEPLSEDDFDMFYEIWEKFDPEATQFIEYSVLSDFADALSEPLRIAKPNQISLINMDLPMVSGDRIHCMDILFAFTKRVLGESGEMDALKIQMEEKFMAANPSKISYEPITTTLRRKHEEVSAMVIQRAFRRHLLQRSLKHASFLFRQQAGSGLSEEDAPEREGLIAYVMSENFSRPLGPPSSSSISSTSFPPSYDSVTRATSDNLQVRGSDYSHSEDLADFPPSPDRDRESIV

NaV1.1 [3] = biological target: T2, NaV1.1 (Homo sapiens (Human), UniProt P35498); test: Sodium Influx Assay (Flux), NaV1.1; type: cell-based; conditions: Trex HEK293 cells, ANG2 dye; arithmetic mean
NaV1.1 [4] = biological target: T2, NaV1.1; test: Electrophysiological Assay (EP), patch voltage clamp, NaV1.1; type: cell-based; conditions: HEK-293 cells, whole-cell patch clamp, inactivated state; arithmetic mean
Protocol: as §1
In some studies, the external sodium was reduced by equimolar replacement with choline. […] All recordings were performed at ambient temperature in a bath chamber with a volume of 150 μL. Control sodium currents were measured in 0.5% DMSO. Controls and representative compounds of the invention were applied to the recording chamber through a 4-pinch or 8-pinch valve bath perfusion system manufactured by ALA Scientific Instruments.
Series resistance compensation was applied (60-80%). […] All statistics in this study are given as mean±SD.
The membrane potential was maintained at a voltage where inactivation of the channel is complete. The voltage is then stepped back to a very negative (Vhold=−150 mV) voltage for 20 ms and then a test pulse is applied to quantify the compound block. […] The percent decrease in sodium current following wash-on of compound was taken as the percent block of sodium channels.

SMILES | IC50 (NaV1.6 [1]) [nM] | IC50 (NaV1.6 [2]) [nM] | IC50 (NaV1.5) [nM] | IC50 (NaV1.1 [3]) [nM] | IC50 (NaV1.1 [4]) [nM]
O=S(=O)(Nc1nccs1)c1ccc(OC2CCN(Cc3ccccn3)CC2)c(Cl)c1 [Example 65, 3-chloro-4-((1-(pyridin-2-ylmethyl)piperidin-4-yl)oxy)-N-(thiazol-2-yl)benzenesulfonamide] | 839 | 552 | 29700 | > 30000 | > 10000
CN(c1ccc(S(=O)(=O)Nc2ncns2)cc1Cl)[C@@H]1CCN(Cc2ccccc2)C1 [Example 68, (R)-4-((1-benzylpyrrolidin-3-yl)(methyl)amino)-3-chloro-N-(1,2,4-thiadiazol-5-yl)benzenesulfonamide 2,2,2-trifluoroacetate] | 2920 | 1410 | > 30000 | > 30000 | > 10000
O=S(=O)(Nc1nccs1)c1ccc(N[C@@H]2CCN(Cc3ccccc3)C2)c(Cl)c1 [Example 79, (R)-4-(1-benzylpyrrolidin-3-ylamino)-3-chloro-N-(thiazol-2-yl)benzenesulfonamide] | 138 | 570 | > 30000 | 6340 | > 10000
CN(c1ccc(S(=O)(=O)Nc2nccs2)cc1Cl)[C@H]1CCN(Cc2ccccc2)C1 [Example 80, (S)-4-((1-benzylpyrrolidin-3-yl)(methyl)amino)-3-chloro-N-(thiazol-2-yl)benzenesulfonamide] | 124 | 378 | 29100 | 12200 | > 10000
Cc1cccc(CN2CCC(Oc3ccc(S(=O)(=O)Nc4nccs4)cc3Cl)CC2)n1 [Example 82, 3-chloro-4-(1-((6-methylpyridin-2-yl)methyl)piperidin-4-yloxy)-N-(thiazol-2-yl)benzenesulfonamide] | 56 | 423 | > 30000 | > 30000 | > 10000
Cc1cccc(CN2CC[C@H](N(C)c3ccc(S(=O)(=O)Nc4ncns4)cc3Cl)C2)c1 [Example 83, (S)-3-chloro-4-(methyl(1-(3-methylbenzyl)pyrrolidin-3-yl)amino)-N-(1,2,4-thiadiazol-5-yl)benzenesulfonamide] | 36 | 29 | > 30000 | > 30000 | > 10000
O=S(=O)(Nc1nccs1)c1cc(Cl)c(N[C@H]2CCN(Cc3ccccc3)C2)cc1F [Example 87, (S)-4-(1-benzylpyrrolidin-3-ylamino)-5-chloro-2-fluoro-N-(thiazol-2-yl)benzenesulfonamide] | 393 | 744 | 14300 | 5960 | 7280
Cc1cccc(CN2CC[C@@H](Nc3cc(F)c(S(=O)(=O)Nc4nccs4)cc3Cl)C2)c1 [Example 88, (R)-5-chloro-2-fluoro-4-(1-(3-methylbenzyl)pyrrolidin-3-ylamino)-N-(thiazol-2-yl)benzenesulfonamide] | 39 | 381 | 5910 | 1590 | 1240
O=S(=O)(Nc1nccs1)c1cc(Cl)c(N[C@@H]2CCN(Cc3ccccc3)C2)cc1F [Example 89, (R)-4-(1-benzylpyrrolidin-3-ylamino)-5-chloro-2-fluoro-N-(thiazol-2-yl)benzenesulfonamide] | 91 | 501 | 12000 | 2130 | 2870
Cc1cccc(CN2CCC(Oc3ccc(S(=O)(=O)Nc4nccs4)cc3Cl)CC2)c1 [Example 92, 3-chloro-4-(1-(3-methylbenzyl)piperidin-4-yloxy)-N-(thiazol-2-yl)benzenesulfonamide] | 81 | 203 | 3640 | 6400 | 7530
O=S(=O)(Nc1ncns1)c1ccc(OC2CCN(Cc3ccccc3)CC2)c(Cl)c1 [Example 100, 4-(1-benzylpiperidin-4-yloxy)-3-chloro-N-(1,2,4-thiadiazol-5-yl)benzenesulfonamide 2,2,2-trifluoroacetate] | 164 | 190 | > 30000 | 30000 | > 10000
CN(c1cc(F)c(S(=O)(=O)Nc2cscn2)c(F)c1Cl)[C@H]1CCN(Cc2ccccc2)C1 [Example 102, (S)-4-((1-benzylpyrrolidin-3-yl)(methyl)amino)-3-chloro-2,6-difluoro-N-(thiazol-4-yl)benzenesulfonamide formate] | 152 | 703 | > 30000 | > 30000 | > 10000
Cc1cccc(CN2CC[C@H](N(C)c3cc(F)c(S(=O)(=O)Nc4cscn4)c(F)c3C)C2)n1 [Example 104, (S)-2,6-difluoro-3-methyl-4-(methyl(1-((6-methylpyridin-2-yl)methyl)pyrrolidin-3-yl)amino)-N-(thiazol-4-yl)benzenesulfonamide formate] | 11 | 26 | > 30000 | > 30000 | > 10000
O=S(=O)(Nc1cscn1)c1c(F)cc(OC2CCN(Cc3ccccc3)CC2)c(Cl)c1F [Example 105, 4-((1-benzylpiperidin-4-yl)oxy)-3-chloro-2,6-difluoro-N-(thiazol-4-yl)benzenesulfonamide formate] | 151 | 268 | 17600 | 27600 | > 10000
Cc1c(OC2CCN(Cc3ccccc3)CC2)cc(F)c(S(=O)(=O)Nc2cscn2)c1F [Example 106, 4-((1-benzylpiperidin-4-yl)oxy)-2,6-difluoro-3-methyl-N-(thiazol-4-yl)benzenesulfonamide formate] | 34 | 99 | 20600 | 23200 | > 10000
Cc1cccc(CN2CC[C@H](N(C)c3cc(F)c(S(=O)(=O)Nc4cscn4)cc3Cl)C2)n1 [Example 192, (S)-5-chloro-2-fluoro-4-(methyl(1-((6-methylpyridin-2-yl)methyl)pyrrolidin-3-yl)amino)-N-(thiazol-4-yl)benzene-sulfonamide] | 370 | 857 | > 30000 | > 30000 | > 10000
CN(c1cc(F)c(S(=O)(=O)Nc2cscn2)cc1Cl)[C@H]1CCN(Cc2cccc(C(F)F)c2)C1 [Example 193, (S)-5-chloro-4-((1-(3-(difluoromethyl)benzyl)-pyrrolidin-3-yl)(methyl)amino)-2-fluoro-N-(thiazol-4-yl)benzene-sulfonamide] | 330 | 774 | 9020 | 3570 | > 10000
COc1ccccc1CN1CC[C@H](N(C)c2cc(F)c(S(=O)(=O)Nc3cscn3)cc2Cl)C1 [Example 206, (S)-5-chloro-2-fluoro-4-((1-(2-methoxybenzyl)pyrrolidin-3-yl)(methyl)amino)-N-(thiazol-4-yl)benzenesulfonamide] | 462 | 532 | > 30000 | 22500 | > 10000
C[C@@H](c1ccccc1)N1CCC(Oc2ccc(S(=O)(=O)Nc3ncns3)cc2Cl)CC1 [Example 221, (S)-3-chloro-4-((1-(1-phenylethyl)piperidin-4-yl)oxy)-N-(1,2,4-thiadiazol-5-yl)benzenesulfonamide 2,2,2-trifluoroacetate] | 98 | 127 | > 30000 | 10800 | > 10000
